Assay results reported in publication PMC12090809 (Journal of Virology, 2025).
“Also recorded” adds a separate entry of the source. Where two headings read alike, the source gives them in different places.

Legend:
[1] = test system: SHIV AD8-EO-infected rhesus macaques; assay: Safety of subcutaneous BNM-III-170 dosing regimens in SHIV AD8-EO-infected RMs; format: in vivo, Macaca mulatta; conditions: for Blood chemistries / Clinical signs: SHIV AD8-EO-infected RMs, one line per animal; for ALP: normal range 83–363 U/L
[2] = Plasma pharmacokinetics of BNM-III-170 in SHIV AD8-EO-infected RMs (HPLC-MS/MS); format: in vivo, Macaca mulatta
Protocol: Plasma concentrations of BNM-III-170 in SHIV-infected animals were measured via liquid chromatography and mass spectrometry at several timepoints following each BNM-III-170 dose for all treatment cycles.

[3] = in vivo, 12 mg/kg
Protocol: BNM-III-170 levels in plasma from rhesus macaque were determined by high-performance liquid chromatography-tandem mass spectrometry (HPLC-MS/MS). Briefly, BNM-III-170 was extracted from plasma using protein precipitation. A Thermo Scientific TSQ Quantiva triple quadrupole mass spectrometer was interfaced with the Thermo Scientific Ultimate 3000XRS UHPLC system using a heated electrospray ion source (HESI). MS detection was performed in positive ion mode, using multiple reaction monitoring (MRM). The precursor-ion reactions for BNM-III-170 and IS were set to 447.3 → [226.1 + 357.1] and 262.0 → 139.1, respectively. Chromatographic separation was achieved on a Thermo Scientific Accucore RP-MS analytical column (100 × 2.1 mm I.D., 2.6 mm) maintained at 40°C using isocratic elution, which consisted of acetonitrile and 10 mM ammonium formate in water (pH 3.0) at a ratio of 20:80, respectively. The flow rate was fixed at 300 µL/min. Acquisition and analysis of data were conducted using the Xcalibur 4.0 software. Each calibration curve was comprised of a double blank (matrix without analyte or internal standard), zero standard, and eight calibration points. Calibration curves were computed from the equation y = ax + b, based on the weight of the calibration lines created from the peak-area ratios of the drug relative to the internal standard.

[4] = test system: CH058TF-infected CEM.NKr cells; format: cell-based, HIV-1
Protocol: To assess the ability of bioavailable BNM-III-170 to induce conformational changes in HIV-1 Env, we assessed the capacity of the Abs naturally elicited in these infected RMs to recognize HIV-1-infected cells before and after BNM-III-170 administration. Plasma from treated animals was incubated with CH058TF-infected CEM.NKr cells, and the ability to recognize infected cells was measured by flow cytometry. […] Importantly, as observed in uninfected RMs, plasma levels of BNM-III-170 in treated, SHIV-infected RMs closely mirrored the kinetic curves for plasma binding.
Cell surface staining was performed at 48 h post-infection. Mock-infected or HIV-1-infected CEM.NKr or primary CD4+ T cells were incubated for 45 min at 37°C with anti-Env mAbs (5 µg/mL), plasma from PWH (1:1,000 dilution), or plasma from infected RMs (1:500). When indicated, antibody/plasma incubation was done in the presence of 50 µM of BNM-III-170, or equivalent amounts of DMSO. To evaluate the capacity of plasma from SHIV-AD8-EO-infected RMs treated with BNM-III-170 to recognize HIV-1-infected cells, a 1:10 plasma dilution was used. Cells were then washed twice with PBS and stained with the appropriate Alexa Fluor 647-conjugated secondary antibody (2 µg/mL) for 20 min and the viability dye AquaVivid (Thermo Fisher Scientific) at room temperature. […]

[5] = test system: Env expressed on CH058TF-infected cells; assay: Binding of anti-CoRBS mAb 17b to CH058TF-infected cells after incubation with plasma from BNM-III-170-treated uninfected RMs (FACS); format: cell-based, HIV-1
Protocol: Next, we assessed the ability of the plasma collected from uninfected RMs at various timepoints following BNM-III-170 administration to induce conformational changes in Env expressed on the surface of HIV-1-infected cells. Briefly, plasma was incubated with cells infected with the transmitted/founder virus CH058 (CH058TF) and the binding of the Alexa-Fluor-647-conjugated anti-CoRBS mAb 17b (whose epitope is not exposed on the “closed” Env conformation) to Env expressed on infected cells was measured by FACS (Fig. 1B).
To evaluate the functional activity of bioavailable BNM-III-170 in plasma, the plasma from uninfected RMs treated with BNM-III-170 was used to modulate Env conformation at the surface of infected cells. Briefly, 2 days post-infection, CEM.NKr cells infected with CH058TF were incubated with plasma from RMs (1:10 dilution), the Alexa-Fluor 647-conjugated 17b (5 µg/mL), and the AquaVivid viability dye at 37°C for 45 min. As a positive control, infected cells were incubated with 50 µM of BNM-III-170. Infected cells were then identified based on HIV-1 p24 detection as described above.

SHIV AD8-EO = assay: Viral infectivity / neutralization assay in TZM-bl cells with SHIV variants; conditions: virus incubated with BNM-III-170 (Fig. 2A)
Protocol: The viral neutralization assay was done as previously described ([56]). Briefly, TZM-bl target cells were seeded at a density of 1 × 10^4 cells/well in 96-well luminometer-compatible tissue culture plates (Perkin-Elmer Life Sciences, Waltham, MA) 24 h before infection. Then, 100 µL portions of recombinant viruses was incubated with the indicated amount of mAbs, plasma, BNM-III-170, or a mixture of mAbs and BNM-III-170 for 1 h at 37°C and then added to the target cells. After incubation for 48 h at 37°C, the medium was removed from each well, and the cells were lysed by the addition of 30 µL of passive lysis buffer (Promega) and three freeze-thaw cycles. An LB 941 TriStar luminometer (Berthold Technologies) was used to measure the luciferase activity in each well after the addition of 100 µL of luciferin buffer (15 mM MgSO4, 15 mM KPO4 [pH 7.8], 1 mM ATP, and 1 mM dithiothreitol) and 50 µL of 1 mM D-luciferin potassium salt (Prolume).

[6] = 36 mg/kg SQ, 2 doses, dosing interval 1 day, 36 mg/kg
[7] = 36 mg/kg SQ, 3 doses, dosing interval 3 days, 36 mg/kg
[8] = animal 14C013 at necropsy, 2 × 36 mg/kg SQ every 24 h

SMILES: CNCc1ccc2c(c1)C[C@H](CN=C(N)N)[C@H]2NC(=O)C(=O)Nc1ccc(Cl)c(F)c1.O=C(O)C(F)(F)F.O=C(O)C(F)(F)F [BNM-III-170]
- Blood chemistries ([1]; 24 mg/kg SQ, 1 dose, 24 mg/kg): Transient elevation of CPK, troponin I
- Blood chemistries [1, 6]: Elevated AST, ALT, amylase, CPK, troponin I; also recorded: Transient elevation of ALP, CPK, troponin I
- Clinical signs [1, 6]: pale mucus membranes, weak femoral pulses, and dyspnea; also recorded: Animal experienced acute respiratory distress and tachycardia at 6 hr post dose #2 and was sacrificed; inconclusive path report, pale liver noted; also recorded: Enlarged liver and spleen, lesion at BNM-III-170 injection site
- Blood chemistries [1, 7]: Transient elevation of AST, ALT, CPK; also recorded: Elevated BUN, BUN/Cr, CPK; low potassium
- Clinical signs [1, 7]: mild erythema at the BNM-III-170 injection sites; also recorded: Animal reached endpoint criteria (weight loss > 25%) due to chronic diarrhea that started prior to CD4mc treatments, animal sacrificed 3 hr post dose #2
- Blood chemistries ([1]; 36 mg/kg SQ, 3 doses, dosing interval 7 days, 36 mg/kg): Transient elevation of AST, ALP, TRIG, CPK; also recorded: Transient elevation of AST, ALT, ALP, CSK; also recorded: Transient elevation of Glob, ALT, ALP, GGT, AMY, CPK
- adverse reactions ([1]; SHIV-infected RMs 14C056 and 34901, 1 × 24 mg/kg SQ): No adverse reactions were observed
- clinical signs of toxicity ([1]; SHIV-infected RMs, 36 mg/kg SQ doses at 7-day dosing interval): no clinical signs of toxicity were noted
- ALT [1, 8]: 123 U/L
- AST [1, 8]: 145 U/L
- troponin I [1, 8]: 0.28 ng/mL
- amylase ([1]; animal 14C013 at necropsy, 2 × 36 mg/kg SQ every 24 h, normal range 148–316 U/L): 421 U/L
- AST ([1]; animal 14C056, 24 h after dose 3, 36 mg/kg SQ every 3 days): 109 U/L
- troponin I ([1]; animal 34901, 6 h post-dose, 1 × 24 mg/kg SQ, resolved by 5 days post-treatment): 0.090 ng/mL
- potassium ([1]; animal 34901 at necropsy (3 h after dose 2, 36 mg/kg SQ every 3 days), 2.4 vs 2.8 at 0 h of cycle, normal range 3–5 mmol/L): 2.4 mmol/L
- blood urea nitrogen ([1]; animal 34901 at necropsy (3 h after dose 2, 36 mg/kg SQ every 3 days), 34 at 0 h of cycle, normal range 9–27, likely due to prolonged diarrhea): 28 mg/dL
- ratio of blood urea nitrogen to creatinine ([1]; animal 34901 at necropsy (3 h after dose 2, 36 mg/kg SQ every 3 days), 37.8 at 0 h of cycle, normal range 12.5–33.3): 35
- troponin I ([1]; animal RYj17, 6 h after dose 1 of 2 × 36 mg/kg SQ every 24 h, resolved by 24 h): 0.049 ng/mL
- ALP ([1]; animal RYj17, 24 h after dose 2 of 2 × 36 mg/kg SQ every 24 h): 405 U/L
- ALP ([1]; animal RYj17, 16 days later (after 24 h post dose 2), 2 × 36 mg/kg SQ every 24 h): 715 U/L
- Cmax ([2]; SHIV AD8-EO-infected RMs, following first dose of each treatment cycle (24 or 36 mg/kg SQ)): 4100 to 12800 ng/mL
- plasma BNM-III-170 level between doses ([2]; SHIV-infected RMs, 36 mg/kg once every 3 days): below the limit of detection
- plasma level 6 h after each dose ([2]; SHIV-infected RMs, all treatment cycles, generally): > 675 ng/mL
- Cmax [3]: 15300 ng/mL
- association of BNM-III-170 plasma concentrations with plasma binding to infected cells ([4]; each treatment cycle, Spearman correlation): correlated with plasma binding to infected cells
- time post-administration up to which RM plasma efficiently recognized infected cells ([4]; plasma from treated SHIV-infected RMs, depending on the dose used): up to 6 h
- association between 17b binding and BNM-III-170 plasma concentrations ([5]; each dose and all combined doses, Spearman correlation): positive correlation
- effect on 17b binding to CH058TF-infected cells ([5]; plasma from uninfected RMs, all tested doses (3–36 mg/kg SQ)): consistently shown to increase 17b binding
- duration of residual 17b activity ([5]; plasma from uninfected RMs, highest tested dose (36 mg/kg SQ)): up to 8 h
- effect on SHIV AD8-EO infectivity (SHIV AD8-EO): directly decrease SHIV AD8-EO infectivity
